Assay [1] concerns Primary human fibroblasts. The assay can be described thus: CML formation in fibroblasts after glyoxal treatment (FACS, immunoblot, immunoprecipitation). It is filed as cell-based. The following applies: 200 µM glyoxal for 7 days. On the procedure:
To test the effect of CML-modifications on vimentin function cells were treated with glyoxal to induce CML-vimentin modifications in fibroblasts. Primary human fibroblasts were incubated with 200 µM glyoxal for 7 days to enhance CML formation^18,20,28. […] The higher rate of CML-vimentin formation leads to a predominant modification of vimentin in the linker region of the molecule.
Proteins from cell extracts (20 µg per lane) were separated by gel electrophoresis under denaturing conditions on 10% SDS-PAGE gels. Immunoblotting was performed following standard procedures using chemiluminescence methods. […] Signals were quantified using LumiAnalyst (Boehringer Mannheim, Germany). […]
Fibroblasts were incubated for 7 days with 200 µM glyoxal^18,20. […] After 3 washing steps with PBS the fluorescence was measured using FACSCanto (BD Biosciences, San Jose, USA) and analysed by the software BD FACSDiva 4.0.
Human fibroblasts were incubated for 7 days with 200 µM glyoxal^18,20 and tested for CML formation using FACS analysis as described above (a). Quantitative analysis of (a) is shown in panel (b, right columns) together with quantitative analysis of dot-blots as described in the legend to Fig.4 and the Methods section (b, left columns). […] Additionally, the two cell populations were lysed, vimentin was immunoprecipitated and analysed for CML-modification by SDS-page and immunoblotting. […]
For orientation: Immunoblotting shows a protein as a band on a membrane.

Assay [2] deals with human fibroblasts. The assay can be described thus: Vimentin redistribution to a perinuclear aggregate after glyoxal treatment (immunofluorescence microscopy). It is filed as cell-based. As to the method: To determine whether the loss of contractile capacity is the result of a CML-induced redistribution of vimentin, immunofluorescence microscopic analysis of fibroblasts with and without glyoxal treatment were employed. […] About 90% of the fibroblasts were affected after incubation for 7 days.
For immunostaining, cells were fixed in 3% paraformaldehyde for 30 minutes at room temperature, washed with PBS and permeabilized with 0.5% Triton X-100 for 5 minutes; after which the cells were blocked with 3% BSA for 30 minutes. Cells were then incubated with primary antibody in 1% BSA for 1 hour. […] Cells were then incubated for 1 hour with 1% BSA solution containing fluorescence-labelled secondary antibodies (AlexaFluor 488 chicken-anti-mouse IgG, AlexaFluor 594 donkey-anti-goat IgG, AlexaFluor 546 donkey-anti-goat IgG, Molecular Probes, Eugene, Oregon) at 1:1,000 to visualise the target protein and DAPI (Molecular Probes, Eugene, Oregon). After extensive washing with PBS fluorescence images were recorded on a fluorescence microscope (Olympus, Hamburg, Germany) with an attached […] camera. Confocal fluorescence images were recorded on LSM 510 Meta (Carl Zeiss, Jena, Germany). […]

Assay [3] has as its system human fibroblasts. The assay can be described thus: Contraction capacity of fibroblasts in 3D free-floating collagen lattices. The class given is cell-based. Conditions: glyoxal treated vs control fibroblasts, n=10, p=0.00056. As to the method: Further, normal fibroblasts were compared with fibroblasts with a higher CML-vimentin modification with respect to contractile capacities. The contractile capacity was determined using 3D free-floating collagen lattices^29,30.
100 mg Type I collagen (Sigma, St. Louis, USA) was dissolved at 4°C in 33.3 ml of 0.1% sterile acetic acid. 0.9 ml of 10x Hank's Buffer Salt Solution (Biochrom, Berlin, Germany) was added to 4.5 ml of this solution of collagen. 1.9 ml of 0.1% acetic acid was supplemented. NaOH was added dropwise to neutralise the solution. 1.5 x 10^5 fibroblasts were resuspended in 0.1 ml FCS and added to the solution for each ml of the gel. Casy Model TT (Schärfe System, Reutlingen, Germany) was used to count the fibroblasts and to control their viability. […] Diameters were measured at 0 hours and 24 hours. […]
Human fibroblasts were incubated for 7 days with 200 µM glyoxal^18,20 and tested for CML formation using FACS analysis as described above (a). Quantitative analysis of (a) is shown in panel (b, right columns) together with quantitative analysis of dot-blots as described in the legend to Fig.4 and the Methods section (b, left columns). […] Additionally, the two cell populations were lysed, vimentin was immunoprecipitated and analysed for CML-modification by SDS-page and immunoblotting. […] The contraction of these lattices was measured after 48h. […]

The subject of assay [4] is age spots (senile lentigo). The assay can be described thus: Lightening effect on undesired skin pigmentation (age spots). The class given is in vivo. Conditions: after seven days. From the text:
Undesired and uneven skin pigmentation such as, e.g., age spots (senile lentigo) are a major problem associated with the aging of skin and skin appendages. N-acetylhydroxyproline has an effect with respect to the lightening of age spots.

For assay [5], the target named is T1, BSA (Bos taurus, UniProt P02769). The assay can be described thus: Inhibition of BSA-CML formation with glucose, dot-blot with CML-specific antibody (part A). It is filed as biochemical, Bovine. Conditions: BSA 1.035 %, glucose 1 M, 7 days at 50°C, various amounts of NAHP. As to the method: BSA samples of were incubated with glucose for 7 days at 50°C in the presence of various amounts of NAHP and thereafter analysed for their CML-content using a dot-blot approach. An antibody which is specific for the CML modifications of immobilised proteins (in this case BSA) on a nitrocellulose membrane was used to make the CML modifications visible. […] The stronger the intensity of each dot in the above series, the higher is the concentration of CML-modifications on the BSA. The control consists of BSA without glycation agent (glucose). Each single dot was quantified for its intensity leading to the results which are shown diagrammatically in Figure 10.
T1 sequence (P02769 25-607): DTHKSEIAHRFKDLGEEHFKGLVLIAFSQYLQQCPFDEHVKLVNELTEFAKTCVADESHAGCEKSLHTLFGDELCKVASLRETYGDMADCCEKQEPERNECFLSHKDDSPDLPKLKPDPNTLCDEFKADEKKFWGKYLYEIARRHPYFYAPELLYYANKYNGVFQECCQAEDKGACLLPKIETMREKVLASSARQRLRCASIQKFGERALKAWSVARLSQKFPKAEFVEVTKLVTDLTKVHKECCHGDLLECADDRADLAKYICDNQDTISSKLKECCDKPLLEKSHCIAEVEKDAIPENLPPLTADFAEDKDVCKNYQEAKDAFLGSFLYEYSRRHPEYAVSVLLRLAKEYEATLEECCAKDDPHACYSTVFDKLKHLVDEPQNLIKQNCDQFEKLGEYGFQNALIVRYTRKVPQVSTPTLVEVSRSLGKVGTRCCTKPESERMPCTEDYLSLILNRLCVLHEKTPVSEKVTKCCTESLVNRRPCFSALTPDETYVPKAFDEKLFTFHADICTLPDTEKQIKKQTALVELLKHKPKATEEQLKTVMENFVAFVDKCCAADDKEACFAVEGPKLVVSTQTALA
The concentration of BSA was 1.035 % (10.35 mg/ml) and the concentration of glucose in each sample was 1 M.

Assay [6] concerns the target T1, BSA. Description: Inhibition of CML glycation of BSA with DHA, dot-blot (part B). It is filed as biochemical, Bovine. The following applies: BSA 1%, DHA 1%, 1 day at 50°C; series I 0.17 % and II 9.82 mM of inhibitor. On the procedure: Samples (A-F) were incubated for 1 day at 50°C and analysed for CML-content using the dot-blot approach set forth above in A. The dot-blot results are shown in Figure 11.
(§1) The samples had the following composition: • A: only BSA (1%) • B: BSA (1%) with DHA (1%) • C: BSA (1%) with Hydroxyproline and DHA (1 %) • D: BSA (1%) with N-Acetylhydroxyproline (NAHP) and DHA (1%) • E: BSA (1%) with Proline and DHA (1%) • F: BSA (1%) with Acetylproline and DHA (1%)
(§2) Each sample (A-F) was tested twice (I+II) with the difference that I. was conducted with 0.17 % of each inhibitor (Proline, Hydroxyproline, Acetylproline or NAHP) and II. was conducted with 9.82 mM of each inhibitor.
The intensity of each dot was quantified. The results are represented in Figure 12.

Assay [7] addresses T1, BSA. Description: AGE-fluorescence of BSA incubated with DHA (part B, samples II). The class given is biochemical, Bovine. The following applies: BSA 1%, DHA 1%. On the procedure:
as §1, §2
Samples A-F (II) were further tested regarding the inhibition of the formation of other AGEs (different from CML). To this end, the AGE-fluorescence at λex=370 nm and λem= 440 nm was measured. The wavelengths used are those proposed by Bellmunt et al., Lung 173 (1995), 177-85 and used by many laboratories.

Assay [8] deals with T1, BSA. Description: BSA-Glucose Assay of AGE formation at pH 5 and pH 7 (part F). It is filed as biochemical, Bovine. The following applies: BSA with glucose, 7 days at 50°C. As to the method: As acetylated compounds result in a decrease in the pH, the effect of NAHP was compared at two different pH values (pH 5 and pH 7). As described in Section A, the BSA-Glucose Assay was used. To stabilize the pH the adjustment was performed after the addition of the inhibitor.
After incubation of BSA with glucose for 7 days at 50°C a significant increase in AGE fluorescence is detectable. An acidic environment (pH 5) results in a much less intensive AGE-formation in the BSA-Glucose Assay than a neutral, environment (pH 7).

`O=CC=O` [glyoxal]: in assay [1], the “CML as measured by FACS and immunoblot analysis” value is “massive increase of CML”. Further, the “fibroblasts showing perinuclear vimentin aggregate formation” value in the assay with human fibroblasts [2] (200 µM glyoxal for 2 days) was “About 70%”. Also, in the assay on human fibroblasts [2] (200 µM glyoxal, incubation for 7 days), the “fibroblasts affected by vimentin aggregate formation” value is “About 90%”. Besides, the “contractile capacity of fibroblasts in 3D collagen lattices” value with human fibroblasts [3] was “significantly reduced”.
As to `CC(=O)N1C[C@H](O)C[C@H]1C(=O)O` [NAHP, N-acetylhydroxyproline], in assay [4], the “brightness of the treated age spot” value is listed as “increase in brightness”. Besides, the “CML glycation of BSA (dot-blot intensity)” value on BSA [5] is recorded as “protective effect on BSA, preventing the CML glycation of this protein”. Moreover, the “inhibitory effect on the CML-glycation of BSA (dot-blot intensity)” value on BSA [6] was “strongest inhibitory effect”. Further, on BSA [7] (9.82 mM inhibitor (samples II)), the “formation of fluorescent AGEs (AGE-fluorescence at λex=370 nm and λem= 440 nm)” value is “inhibited”. In addition, the “brownish color of AGEs in the solution” value on BSA [7] (samples II, digital picture) is “absent”. Besides, the “AGE-formation (AGE fluorescence) at pH 5” value on BSA [8] (pH 5) was “reduced AGE-formation”. Moreover, on BSA [8] (pH 7), the “AGE-formation (AGE fluorescence) at pH 7” value is reported as “reduced AGE-formation”.
Consider `CC(=O)N1CCC[C@H]1C(=O)O` [Acetylproline, reference compound], for which, at BSA [6], the “inhibitory effect on the CML-glycation of BSA (dot-blot intensity)” value was “potent inhibitor of the CML-glycation, but to a lesser extent than NAHP”.

Values taken from patent EP2932958A1, “COSMETIC AND PHARMACEUTICAL APPLICATIONS OF N-ACETYLHYDROXYPROLINE” (Beiersdorf AG, priority 2007, dated 2008).
